Assay results reported in ChEMBL document CHEMBL5131556, “Ibogaine and Their Analogs as Therapeutics for Neurological and Psychiatric Disorders” (ACS Med Chem Lett, 2022).
pIC50: −log10 of the molar value.

How the values were obtained:
[1] = biological target: Synaptic vesicular amine transporter (Rattus norvegicus, UniProt Q01827); assay: Inhibition of rat VMAT2 transfected in HEK cells using FFN206 as fluorescent substrate preincubated for 1 hr followed by substrate addition and measured after 30 mins by fluorescence plate reader assay; format: cell-based
[2] = biological target: Sodium-dependent serotonin transporter (Homo sapiens, UniProt P31645); assay: Inhibition of human SERT transfected in HEK cells using APP+ as fluorescent substrate preincubated for 1 hr followed by substrate addition and measured after 30 mins by fluorescence plate reader assay; format: cell-based
Sodium-dependent serotonin transporter, sequence (P31645 whole entry): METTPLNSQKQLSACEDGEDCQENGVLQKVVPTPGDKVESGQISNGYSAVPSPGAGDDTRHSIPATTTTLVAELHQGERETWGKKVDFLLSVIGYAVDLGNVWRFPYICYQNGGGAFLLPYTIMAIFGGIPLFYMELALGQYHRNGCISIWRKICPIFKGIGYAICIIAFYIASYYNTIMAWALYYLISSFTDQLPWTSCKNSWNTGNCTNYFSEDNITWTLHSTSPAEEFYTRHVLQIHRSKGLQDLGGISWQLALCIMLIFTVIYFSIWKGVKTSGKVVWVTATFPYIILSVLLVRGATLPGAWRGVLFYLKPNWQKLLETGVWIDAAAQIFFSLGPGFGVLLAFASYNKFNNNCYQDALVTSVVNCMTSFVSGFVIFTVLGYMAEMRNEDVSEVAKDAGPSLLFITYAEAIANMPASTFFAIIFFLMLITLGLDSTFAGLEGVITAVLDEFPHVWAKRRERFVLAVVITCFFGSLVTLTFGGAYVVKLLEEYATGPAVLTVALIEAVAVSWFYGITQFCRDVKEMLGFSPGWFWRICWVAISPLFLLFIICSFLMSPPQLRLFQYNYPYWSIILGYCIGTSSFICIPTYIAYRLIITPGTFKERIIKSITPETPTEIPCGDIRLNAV

Synaptic vesicular amine transporter, sequence (Q01827 whole entry): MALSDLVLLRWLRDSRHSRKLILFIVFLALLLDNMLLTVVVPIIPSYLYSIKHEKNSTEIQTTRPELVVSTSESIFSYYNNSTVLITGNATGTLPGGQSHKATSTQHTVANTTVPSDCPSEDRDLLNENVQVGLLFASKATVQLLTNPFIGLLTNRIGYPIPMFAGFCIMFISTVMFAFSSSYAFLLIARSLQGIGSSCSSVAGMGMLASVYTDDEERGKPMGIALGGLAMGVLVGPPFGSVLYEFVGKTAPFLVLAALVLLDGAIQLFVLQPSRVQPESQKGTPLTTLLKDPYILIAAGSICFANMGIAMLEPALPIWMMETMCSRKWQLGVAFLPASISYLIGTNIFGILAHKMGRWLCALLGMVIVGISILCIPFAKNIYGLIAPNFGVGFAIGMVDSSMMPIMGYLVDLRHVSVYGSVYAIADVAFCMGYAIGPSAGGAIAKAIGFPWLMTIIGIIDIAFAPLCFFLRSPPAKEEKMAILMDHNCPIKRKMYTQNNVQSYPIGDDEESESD

Row | Structure (SMILES) | pIC50 [1] | pIC50 [2]
1 | CC[C@H]1C[C@@H]2C[C@H]3c4[nH]c5ccc(OC)cc5c4CCN(C2)[C@@H]13 | 5.40 | –
2 | CC[C@H]1C[C@@H]2C[C@H]3c4c(c5cc(OC)ccc5n4C)CCN(C2)[C@@H]13 | 6.13 | 5.82
3 | CC[C@H]1C[C@@H]2C[C@H]3c4[nH]c5ccc(C#N)cc5c4CCN(C2)[C@@H]13 | 5.48 | 7.59
4 | CC[C@H]1C[C@@H]2C[C@H]3c4c(c5cc(O)ccc5n4CC)CCN(C2)[C@@H]13 | 7.15 | 5.72
5 | CCc1ccc2c(c1)c1c(n2C)[C@@H]2C[C@H]3C[C@H](CC)[C@@H]2N(CC1)C3 | 6.12 | 6.04
6 | CC[C@H]1C[C@@H]2C[C@H]3c4[nH]c5ccccc5c4CCN(C2)[C@@H]13 | 5.52 | 6.48
7 | CC[C@H]1C[C@@H]2C[C@H]3c4[nH]c5ccc(OC)c(Br)c5c4CCN(C2)[C@@H]13 | 5.31 | 6.17
8 | CC[C@H]1C[C@@H]2C[C@H]3c4c(c5cc(C#N)ccc5n4C)CCN(C2)[C@@H]13 | 6.36 | 8.29
9 | CC[C@H]1C[C@@H]2C[C@H]3c4c(c5ccccc5n4C)CCN(C2)[C@@H]13 | 5.82 | 7.10
10 | CC[C@H]1C[C@@H]2CC3c4[nH]c5ccc(O)cc5c4CCN(C2)[C@H]31 | 6.24 | –
11 | CCOc1ccc2[nH]c3c(c2c1)CCN1C[C@@H]2C[C@H](CC)[C@H]1[C@H]3C2 | 7.10 | 5.05
12 | CC[C@H]1C[C@@H]2C[C@H]3c4c(c5cc(O)ccc5n4C)CCN(C2)[C@@H]13 | 6.77 | 7.23
